# From ChEMBL document CHEMBL5543078, “Peptidomimetics as potent dual SARS-CoV-2 cathepsin-L and main protease inhibitors: In silico design, synthesis and pharmacological characterization” (Eur J Med Chem, 2024)
# The source made the active and inactive calls. The rule behind the calls is not given here. Non-standard residues stand in square brackets, D forms with d. Residues, ends and D or L forms follow the SMILES beside them. *: point of attachment. AllylGly = C=CC[C@H](N)C(=O)O; Acryloyl = C=CC(=O)*; NHBn = c1ccc(CN*)cc1; ClAc = O=C(CCl)*
# Legend:
# [1] = Stability in simulated gastric fluid assessed as parent compound remaining incubated upto 120 mins by LC-MS analysis; format: ADME; details: read-out: Stability
# [2] = Metabolic stability in human liver microsomes assessed as intrinsic clearance incubated upto 60 mins in presence of NADPH by LC-MS analysis; format: ADME, Microsome; details: read-out: CLH
# [3] = Metabolic stability in human liver microsomes assessed as half life incubated upto 60 mins in presence of NADPH by LC-MS analysis; format: ADME, Microsome
# [4] = Stability in simulated intestinal fluid assessed as parent compound remaining incubated upto 120 mins by LC-MS analysis; format: ADME; details: read-out: Stability
# [5] = Cytotoxicity against African green monkey Vero cells assessed as change in cell morphology by measuring minimum cytotoxic concentration by microscopic analysis; format: toxicity, cell-based; details: chlorocebus sabaeus
# [6] = Metabolic stability in human liver microsomes assessed as half life incubated upto 60 mins in presence of NADPH and UDPGA by LC-MS analysis; format: ADME, Microsome
# Human coronavirus 229E = format: functional, organism-based
# SARS-CoV-2 [7] = assay: microbe, parasite or virus in culture; details: Severe acute respiratory syndrome coronavirus 2, Omicron B1.1.529, Vero
# Description: Antiviral activity against SARS-CoV-2 Omicron B1.1.529 infected in African green monkey Vero cells assessed as reduction in virus-induced cytopathic effect incubated for 6 to 7 days by microscopic analysis
# [8] = biological target: Replicase polyprotein 1ab (Severe acute respiratory syndrome coronavirus 2, UniProt P0DTD1); assay: Inhibition of recombinant SARS-CoV-2 main protease using DABCYL-KTSAVLQSGFRKME-EDANS as fluorescent substrate preincubated for 30 mins followed by substrate addition by FRET assay
# SARS-CoV-2 [9] = assay: microbe, parasite or virus in culture; details: Severe acute respiratory syndrome coronavirus 2, NVDBB-2220 (Alpha), Vero
# Description: Antiviral activity against SARS-CoV-2 NVDBB-2220 (Alpha) infected in African green monkey Vero cells assessed as reduction in virus-induced cytopathic effect incubated for 6 to 7 days by microscopic analysis
# SARS-CoV-2 [10] = assay: microbe, parasite or virus in culture; details: Severe acute respiratory syndrome coronavirus 2, Wuhan/WIV04/2020, Vero
# Description: Antiviral activity against SARS-CoV-2 Wuhan/WIV04/2020 infected in African green monkey Vero cells assessed as reduction in virus-induced cytopathic effect incubated for 6 to 7 days by microscopic analysis
# SARS-CoV-2 [11] = assay: microbe, parasite or virus in culture; details: Severe acute respiratory syndrome coronavirus 2, 860-J1 (Delta), Vero
# Description: Antiviral activity against SARS-CoV-2 860-J1 (Delta) infected in African green monkey Vero cells assessed as reduction in virus-induced cytopathic effect incubated for 6 to 7 days by microscopic analysis
# Human coronavirus OC43 = format: functional, organism-based
# Procathepsin L = Procathepsin L (Homo sapiens, UniProt P07711); assay: Inhibition of Cathepsin L (unknown origin) using Z-Leu-Arg-AMC fluorometric dipeptide as substrate peincubated for 10 mins followed by substrate addition by fluorescence based assay
# Sequence of Procathepsin L (P07711 whole entry): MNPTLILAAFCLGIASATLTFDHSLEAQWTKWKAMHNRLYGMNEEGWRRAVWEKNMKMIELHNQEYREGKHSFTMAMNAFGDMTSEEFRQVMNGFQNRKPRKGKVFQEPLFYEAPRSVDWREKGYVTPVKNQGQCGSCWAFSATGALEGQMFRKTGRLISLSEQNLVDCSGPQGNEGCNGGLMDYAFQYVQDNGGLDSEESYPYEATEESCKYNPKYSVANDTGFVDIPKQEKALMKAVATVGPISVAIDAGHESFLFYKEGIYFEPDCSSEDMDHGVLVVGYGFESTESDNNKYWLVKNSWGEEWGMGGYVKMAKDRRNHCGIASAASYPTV
SMILES,remaining at 2 h [1],CLint scaled [2],half-life [3],remaining at 2 h [4],MCC [5],half-life [6],Activity (Human coronavirus 229E),EC50 (SARS-CoV-2 [7]),IC50 [8],EC50 (SARS-CoV-2 [9]),EC50 (SARS-CoV-2 [10]),EC50 (SARS-CoV-2 [11]),Activity (Human coronavirus OC43),IC50 (Procathepsin L)
O=C(CCl)N[C@@H](Cc1ccccc1)C(=O)N[C@@H](Cc1c[nH]c2ccccc12)C(=O)NCc1ccccc1 (ClAc-Phe-Trp-NHBn),> 80%,> 45 mL/min/kg,38.3 min,> 80%,> 100 µM,19.6 min,Active,1.34 µM,0.73 µM,0.68 µM,0.09 µM,1.3 µM,Active,–
C=CC(=O)N[C@@H](Cc1ccccc1)C(=O)N[C@@H](Cc1c[nH]c2ccccc12)C(=O)NCc1ccccc1 (Acryloyl-Phe-Trp-NHBn),–,–,–,–,> 100 µM,–,Active,> 20 µM,> 30 µM,> 20 µM,> 20 µM,> 20 µM,Active,> 30 µM
CCN(CC)CCCC(C)Nc1ccnc2cc(Cl)ccc12 (stereo unspecified),–,–,–,–,–,–,Active,–,–,–,–,–,Active,–
C=CC[C@H](NC(=O)CCl)C(=O)N[C@@H](Cc1c[nH]c2ccccc12)C(=O)NCc1ccccc1 (ClAc-[AllylGly]-Trp-NHBn),–,–,–,–,> 100 µM,–,Active,5.87 µM,1.72 µM,1.16 µM,0.49 µM,2.12 µM,Active,–
C=CC[C@H](NC(=O)CCl)C(=O)N[C@@H](Cc1c[nH]c2ccccc12)C(=O)NCCN1CCOCC1,–,–,–,–,> 100 µM,–,Active,13.5 µM,> 30 µM,10.7 µM,10.3 µM,29.2 µM,Active,–
CC(C)C[C@H](NC(=O)CCl)C(=O)N[C@H](Cc1c[nH]c2ccccc12)C(=O)NCc1ccccc1,–,–,–,–,> 100 µM,–,Active,> 20 µM,14.6 µM,> 20 µM,8.71 µM,> 20 µM,Active,–
CC(C)C[C@H](NC(=O)CCl)C(=O)N[C@@H](Cc1ccccc1)C(=O)N[C@@H](Cc1c[nH]c2ccccc12)C(=O)NCc1ccccc1 (ClAc-Leu-Phe-Trp-NHBn),–,–,–,–,> 100 µM,–,Active,> 100 µM,> 30 µM,> 20 µM,4.81 µM,> 20 µM,Active,–
CCC(CC)COC(=O)[C@H](C)N[P@](=O)(OC[C@H]1O[C@@](C#N)(c2ccc3c(N)ncnn23)[C@H](O)[C@@H]1O)Oc1ccccc1 [REMDESIVIR],–,–,–,–,> 40 µM,–,Active,0.83 µM,–,2.93 µM,3.74 µM,3.74 µM,Active,–
NC(=O)c1ncn([C@@H]2O[C@H](CO)[C@@H](O)[C@H]2O)n1,–,–,–,–,–,–,Active,–,–,–,–,–,Active,–
O=C(CCl)N[C@@H](Cc1ccc(O)cc1)C(=O)N[C@@H](Cc1c[nH]c2ccccc12)C(=O)NCc1ccccc1 (ClAc-Tyr-Trp-NHBn),–,–,–,–,> 100 µM,–,inactive,5.04 µM,8.35 µM,3.46 µM,2.37 µM,12.3 µM,inactive,–
CCOC(=O)[C@H]1O[C@@H]1C(=O)N[C@@H](CC(C)C)C(=O)NCCC(C)C [ALOXISTATIN],–,–,–,–,–,–,Active,–,–,–,–,–,Active,0.034 µM
